Source: patent US10266566B2, “Protease-resistant peptide ligands” (North Carolina State University, priority 2013, dated 2019)
“Also recorded” adds a separate entry of the source. Where a SMILES comes first, the peptide text is derived from it. Where no end group is shown, it is not given here. [ ]: non-standard residue; d: D form. The star is where a group is joined. Toyopearl = Toyopearl AF-Amino-650M resin to which the C-terminus is tethered; Trp(1-Me) = Cn1cc(C[C@H](N)C(=O)O)c2ccccc21; Phe(4-Me) = Cc1ccc(C[C@H](N)C(=O)O)cc1; Lys(Me2) = CN(C)CCCC[C@H](N)C(=O)O; Cit = NC(=O)NCCC[C@H](N)C(=O)O; For = O=C*

Tests used:
α-chymotrypsin = molecular target: T1, α-chymotrypsin (Bos taurus, UniProt P00766); assay: Resistance of peptide ligands to proteolytic digestion: IgG yield after contact with α-chymotrypsin; type: in vitro ADME; conditions: for IgG Yield 2nd run (after α-chymotrypsin): after contact with α-chymotrypsin in Tris buffer pH 8.5 for 10 minutes; for resistance to α-chymotrypsin (in words): loss of IgG binding capacity after enzyme treatment, FIG. 2
T1 construct: purchased Sigma Aldrich
Procedure: (§1) All resins (35 mg each) were packed in a 30 mm×2.1 mm I.D. Microbore column (0.1 mL) (Alltech-Applied Science, Somerset, Pa., USA) and swollen with 20% v/v methanol. After equilibration with PBS, pH 7.4, three IgG binding tests were performed using a 10 mg/mL solution of hIgG in PBS. Between each binding test, the resin was contacted with a 0.15 mg/mL solution of either trypsin or α-chymotrypsin in Tris HCl buffer, pH 8.5. The chromatographic protocol employed for all five injections was as follows. One hundred microliters of feed sample was loaded onto the column at a flow rate of 0.05 mL/min (87 cm/h). After a washing step with 2 mL of equilibration buffer at a flow rate of 0.2 mL/min (348 cm/h), elution was performed with 4 mL of 0.2M acetate buffer pH 4.0 at a flow rate of 0.4 mL/min (696 cm/h). Finally, the adsorbent was regenerated with 4 mL of 0.85% phosphoric acid. The adsorbents HWRGWV-, HYFKFD-, and HFRRHL-Toyopearl (SEQ ID NOS: 6, 16, 17) resins were used as controls. The effluent was monitored by absorbance at 280 nm.
(§2) Based on the results reported in Table 2, the original sequences HWRGWV, HFRRHL, and HYFKFD (SEQ ID NOS: 1-3), and their variants HWMetCitGWMetV, HFMetCitCitHL, and HYMetFMetK(Met)2FMetD (SEQ ID NOS: 4, 5, 7) were tested for their resistance to enzymatic digestion. The sequences HWMetCitGWMetV (SEQ ID NO: 8), HFMetCitCitHL (SEQ ID NO: 5) were selected as the best variants of their respective original peptides, while HYMetFMetKMet2FMetD (SEQ ID NO: 7) was used as a negative control. […] Each adsorbent was subjected to five consecutive chromatographic runs. First, a solution of pure human polyclonal IgG at 10 mg/mL in PBS was injected to determine IgG yield for each adsorbent prior to contact with any enzyme. All four peptide variants gave a yield above 91% for this initial run. The resin was then contacted with a solution of α-chymotrypsin in Tris buffer pH 8.5 for 10 minutes. The amount of enzyme loaded onto the column was in a mass ratio of 1:100 peptide:enzyme, as done by Verdoliva et al.. After rinsing the resin, a second injection of IgG was then performed to estimate the loss of binding capacity due to the digestion of the peptide ligand by α-chymotrypsin. The resin was then contacted with the second enzyme solution, i.e., trypsin in Tris buffer pH 8.5, at the same peptide:enzyme ratio. A third IgG injection was finally performed to estimate the residual binding capacity of each resin after the second enzyme treatment.

trypsin = assay: Resistance of peptide ligands to proteolytic digestion: IgG yield after contact with trypsin; type: in vitro ADME; conditions: for IgG Yield 3rd run (after trypsin): after α-chymotrypsin and then trypsin in Tris buffer pH 8.5; for resistance to trypsin (in words): loss of IgG binding capacity after enzyme treatment, FIG. 2
Procedure: as §1, §2

IgG = assay: Purification of IgG (IVIG) from Cohn fraction II+III of human plasma, yield and purity; type: binding
human polyclonal IgG = assay: Chromatographic IgG binding test of peptide-Toyopearl adsorbents with pure human polyclonal IgG; conditions: peptide on Toyopearl resin, approx. 0.12 meq/g, 0.1 mL column; ratio of IgG eluted to total IgG loaded
Procedure: All resins (35 mg each) were packed in a 30 mm×2.1 mm I.D. Microbore column (0.1 mL) (Alltech-Applied Science, Somerset, Pa., USA) and swollen with 20% v/v methanol. After equilibration with PBS, pH 7.4, three IgG binding tests were performed using a 10 mg/mL solution of hIgG in PBS. Between each binding test, the resin was contacted with a 0.15 mg/mL solution of either trypsin or α-chymotrypsin in Tris HCl buffer, pH 8.5. The chromatographic protocol employed for all five injections was as follows. One hundred microliters of feed sample was loaded onto the column at a flow rate of 0.05 mL/min (87 cm/h). […] The effluent was monitored by absorbance at 280 nm.
The amount of IgG in the collected fractions was quantified by HPLC using 1 mL HiTrap Protein G column. The yield of IgG was calculated as the ratio of IgG eluted to total IgG loaded. The purity of IgG in the eluted fractions was determined by sodium dodecyl sulfate polyacrylamide gel electrophoresis (SDS-PAGE) under reducing conditions using NuPAGE® Novex 4-12% Bis-Tris gels in a Xcell SuperLock™ Mini-Cell system (LifeSciences, Carlsbad, Calif., USA). […] The IgG purity was determined by densitometric analysis of Coomassie-stained gels by means of ImageJ 1.32j software (National Institutes of Health, Bethesda, Md., USA). […]

[1] = 0.25M NaCl in PBS binding buffer
[2] = 0.13M NaCl in PBS binding buffer

Compound | IgG Yield 2nd run (after α-chymotrypsin) (α-chymotrypsin) | IgG Yield 3rd run (after trypsin) (trypsin) | resistance to trypsin (in words) (trypsin) | resistance to α-chymotrypsin (in words) (α-chymotrypsin) | also measured
Cc1ccc(C[C@H](NC(=O)[C@@H](N)Cc2c[nH]cn2)C(=O)N[C@@H](CCCNC(N)=O)C(=O)N[C@@H](CCCNC(N)=O)C(=O)N[C@@H](Cc2c[nH]cn2)C(=O)N[C@@H](CC(C)C)C(=O)O)cc1 [HFMetCitCitHL] (H-H[Phe(4-Me)][Cit][Cit]HL-OH; N-terminus and C-terminus assumed) | 92% | 91% | – | – | –
CC(C)[C@H](NC(=O)[C@H](Cc1c[nH]c2ccccc12)NC(=O)CNC(=O)[C@H](CCCNC(N)=O)NC(=O)[C@H](Cc1c[nH]c2ccccc12)NC(=O)[C@@H](N)Cc1c[nH]cn1)C(=O)O [HWCitGWV] (H-HW[Cit]GWV-OH; N-terminus and C-terminus assumed) | 73% | 71% | resistance towards one enzyme only | – | –
CC(C)[C@H](NC(=O)[C@H](Cc1cn(C)c2ccccc12)NC(=O)CNC(=O)[C@H](CCCNC(=N)N)NC(=O)[C@H](Cc1cn(C)c2ccccc12)NC(=O)[C@@H](N)Cc1c[nH]cn1)C(=O)O [HWMetRGWMetV] (H-H[Trp(1-Me)]RG[Trp(1-Me)]V-OH; N-terminus and C-terminus assumed) | 91% | 82% | – | resistance towards one enzyme only | –
Ac-HWMetCitGWMetV: acetylated version of the variant HWMetCitGWMetV (Ac-H[Trp(1-Me)][Cit]G[Trp(1-Me)]V; not fully specified (C-terminus)) | – | – | – | – | IgG Purity (IgG; [1]): 92%; IgG yield over the binding buffers (IgG; over 0M, 0.13M, 0.25M NaCl binding buffers): above 90%
Ac-HWRGWV: acetylated version of the original HWRGWV (not fully specified (C-terminus); printed as Ac-HWRGWV; also: TOYOPEARL at residue 6) | – | – | – | – | IgG Purity (IgG; 0M NaCl in PBS binding buffer): 80%; IgG Yield (IgG; 0M NaCl in PBS binding buffer): 91%; IgG Purity (IgG; [2]): 80%; IgG Yield (IgG; [2]): 84%; IgG Purity (IgG; [1]): 84%; IgG Yield (IgG; [1]): 83%
HFRRHL [HFRRHL, reference compound] | 78% | 54% | good substrate for trypsin | – | –
HFcarbCitCitHL: variant of HFRRHL designed using carbamoyl-phenylalanine and citrulline (HF[Cit][Cit]HL-Toyopearl; not fully specified (residue 2); printed as HFcarbCitCitHL) | – | – | – | – | IgG Yield (human polyclonal IgG): 53%
HWMetCitDWMetV: variant created by replacing glycine with aspartic acid | – | – | – | – | IgG Yield (human polyclonal IgG): 47%
HWRGWV [HWRGWV, reference compound] | 72% | 36% | degraded by both trypsin and α-chymotrypsin; also recorded: ideal substrate for trypsin | degraded by both trypsin and α-chymotrypsin | –
HYFKFD [HYFKFD, reference compound] | 76% | 71% | almost immune to the attack of trypsin | – | –

Continued, in another order:

IgG Yield 2nd run (after α-chymotrypsin) (α-chymotrypsin) | IgG Yield 3rd run (after trypsin) (trypsin) | resistance to trypsin (in words) (trypsin) | resistance to α-chymotrypsin (in words) (α-chymotrypsin) | Compound | also measured
69% | 69% | – | – | CC(C)[C@H](NC(=O)[C@H](Cc1cn(C=O)c2ccccc12)NC(=O)CNC(=O)[C@H](CCCNC(N)=O)NC(=O)[C@H](Cc1cn(C=O)c2ccccc12)NC(=O)[C@@H](N)Cc1c[nH]cn1)C(=O)O [HWForCitGWForV] (H-HW(For)[Cit]GW(For)V-OH; N-terminus and C-terminus assumed) | –
91% | 90% | completely unaffected by either | completely unaffected by either | CC(C)[C@H](NC(=O)[C@H](Cc1cn(C)c2ccccc12)NC(=O)CNC(=O)[C@H](CCCNC(N)=O)NC(=O)[C@H](Cc1cn(C)c2ccccc12)NC(=O)[C@@H](N)Cc1c[nH]cn1)C(=O)O [HWMetCitGWMetV] (H-H[Trp(1-Me)][Cit]G[Trp(1-Me)]V-OH; N-terminus and C-terminus assumed) | –
49% | 53% | high resistance to proteolysis | high resistance to proteolysis | COc1ccc(C[C@H](NC(=O)[C@@H](N)Cc2c[nH]cn2)C(=O)N[C@@H](Cc2ccc(C)cc2)C(=O)N[C@@H](CCCCN(C)C)C(=O)N[C@@H](Cc2ccc(C)cc2)C(=O)N[C@@H](CC(=O)O)C(=O)O)cc1 [HYMetFMetKMet2FMetD] (H-HY(Me)[Phe(4-Me)][Lys(Me2)][Phe(4-Me)]D-OH; N-terminus and C-terminus assumed) | –
